In brackets after ≈: the same amount, converted by molar mass.
Experiment: physchem
Assay type: physicochemical
Details: 37 °C
Experimental: This solubility is measured in an aqueous medium at 37° C., maintained at the pH under consideration. The solubility of Irbesartan varies greatly in the gastric pH range: The solubility of Eprosartan varies greatly in the gastric pH range: The solubility of Acyclovir varies greatly in the gastric pH range: […]

[1] = pH 1.2, simulated gastric fluid

Row | solubility [1] [µg/mL] | solubility (pH 2, simulated gastric fluid) [µg/mL] | solubility (pH 2.5, aqueous buffer) [µg/mL] | solubility (pH 4.5, aqueous buffer) [µg/mL] | solubility (pH 6.8, aqueous buffer) [µg/mL] | solubility (pH 3, aqueous buffer) [µg/mL] | solubility (pH 5.5, aqueous buffer) [µg/mL] | Compound
1 | 10500 (≈ 46600 µM) | 6000 (≈ 26600 µM) | 3300 (≈ 14700 µM) | 2600 (≈ 11500 µM) | 2500 (≈ 11100 µM) | – | – | Nc1nc2c(ncn2COCCO)c(=O)[nH]1 [Acyclovir]
2 | 795 (≈ 1870 µM) | 142 (≈ 334 µM) | – | 18 (≈ 42.4 µM) | 1190 (≈ 2810 µM) | 33 (≈ 77.7 µM) | 15 (≈ 35.3 µM) | CCCCc1ncc(/C=C(\Cc2cccs2)C(=O)O)n1Cc1ccc(C(=O)O)cc1 [Eprosartan]
3 | 2420 (≈ 5650 µM) | 362 (≈ 845 µM) | – | 20 (≈ 46.7 µM) | 666 (≈ 1550 µM) | 48 (≈ 112 µM) | 65 (≈ 152 µM) | CCCCC1=NC2(CCCC2)C(=O)N1Cc1ccc(-c2ccccc2-c2nnn[nH]2)cc1 [Irbesartan]
